Common to all, as to assay type: cell-based
One assay has as its target T1, αvβ6 (Homo sapiens, UniProt P06756+P18564).
T1 construct: expressed in transfected cells; host or cells: K562
The experiment in a line: Cell adhesion assay, K562-αvβ6 (LAP-b1). Conditions: K562-αvβ6 cells, ligand LAP-b1, 2 mM MgCl2; for IC50: mean, read-out: αvβ6 pIC50 (mean affinity, cell Adhesion Assay) (converted). How it is done: (§1) Reagents and methods utilised are as described [Ludbrook et al, Biochem. J. 2003, 369, 311 and Macdonald et al. ACS Med. Chem. Lett. 2014, 5, 1207-1212 for αvβ8 assay), with the following points of clarification. The following cell lines are used, with ligands in brackets: K562-αvβ3 (LAP-b1), K562-αvβ5 (Vitronectin), K562-αvβ6 (LAP-b1), K562-αvβ8 (LAP-b1), A549-αvβ1 (LAP-b1). The divalent cation used to facilitate adhesion is 2 mM MgCl2. Adhesion is quantified by cell labelling with the fluorescent dye BCECF-AM (Life Technologies), where cell suspensions at 3×10^6 cells/mL are incubated with 0.33 uL/mL of 30 mM BCECF-AM at 37° C. for 10 minutes, then 50 μL/well are dispensed into the 96-well assay plate. At the assay conclusion cells that adhered are lysed using 50 μL/well of 0.5% Triton X-100 in H2O to release fluorescence. Fluorescence intensity is detected using an Envision® plate reader (Perkin Elmer). For active antagonists in the assay, data is fitted to a 4 parameter logistic equation for IC50 determinations.

The target of the next assay is T2, αvβ1 (Homo sapiens, UniProt P05556+P06756).
T2 construct: host or cells: A549
T2 sequence (P06756 31-889 limits assumed): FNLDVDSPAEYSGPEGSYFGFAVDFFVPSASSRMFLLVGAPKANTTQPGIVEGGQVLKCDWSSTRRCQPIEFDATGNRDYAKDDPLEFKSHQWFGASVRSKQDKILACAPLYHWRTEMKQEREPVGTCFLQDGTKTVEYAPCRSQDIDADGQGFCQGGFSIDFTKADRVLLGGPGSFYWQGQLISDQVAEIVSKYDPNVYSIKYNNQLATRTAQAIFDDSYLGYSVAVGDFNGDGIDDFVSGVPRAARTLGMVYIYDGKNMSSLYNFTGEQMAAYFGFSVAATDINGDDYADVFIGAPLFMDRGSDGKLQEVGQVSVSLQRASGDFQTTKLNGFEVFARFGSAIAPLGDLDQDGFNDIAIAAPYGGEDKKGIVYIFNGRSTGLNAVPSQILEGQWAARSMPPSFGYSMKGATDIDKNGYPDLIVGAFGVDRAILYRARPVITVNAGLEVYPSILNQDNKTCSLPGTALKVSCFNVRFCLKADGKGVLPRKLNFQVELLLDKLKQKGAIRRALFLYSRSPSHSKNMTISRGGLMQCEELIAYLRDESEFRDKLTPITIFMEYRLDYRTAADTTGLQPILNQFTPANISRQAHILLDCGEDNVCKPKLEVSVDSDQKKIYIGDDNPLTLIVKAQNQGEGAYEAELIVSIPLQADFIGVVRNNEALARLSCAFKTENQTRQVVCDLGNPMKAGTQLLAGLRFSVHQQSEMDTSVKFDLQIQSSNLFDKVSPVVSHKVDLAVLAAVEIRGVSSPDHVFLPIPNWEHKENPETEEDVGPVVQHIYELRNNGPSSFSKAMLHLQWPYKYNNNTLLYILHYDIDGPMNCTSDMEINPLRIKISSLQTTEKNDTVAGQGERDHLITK
T2 sequence (P06756 891-1048 partner limits assumed): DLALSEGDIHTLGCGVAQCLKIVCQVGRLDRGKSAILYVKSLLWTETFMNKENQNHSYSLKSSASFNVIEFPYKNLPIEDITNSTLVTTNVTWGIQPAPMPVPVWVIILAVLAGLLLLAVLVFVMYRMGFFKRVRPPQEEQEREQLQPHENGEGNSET
T2 sequence (P05556 21-798): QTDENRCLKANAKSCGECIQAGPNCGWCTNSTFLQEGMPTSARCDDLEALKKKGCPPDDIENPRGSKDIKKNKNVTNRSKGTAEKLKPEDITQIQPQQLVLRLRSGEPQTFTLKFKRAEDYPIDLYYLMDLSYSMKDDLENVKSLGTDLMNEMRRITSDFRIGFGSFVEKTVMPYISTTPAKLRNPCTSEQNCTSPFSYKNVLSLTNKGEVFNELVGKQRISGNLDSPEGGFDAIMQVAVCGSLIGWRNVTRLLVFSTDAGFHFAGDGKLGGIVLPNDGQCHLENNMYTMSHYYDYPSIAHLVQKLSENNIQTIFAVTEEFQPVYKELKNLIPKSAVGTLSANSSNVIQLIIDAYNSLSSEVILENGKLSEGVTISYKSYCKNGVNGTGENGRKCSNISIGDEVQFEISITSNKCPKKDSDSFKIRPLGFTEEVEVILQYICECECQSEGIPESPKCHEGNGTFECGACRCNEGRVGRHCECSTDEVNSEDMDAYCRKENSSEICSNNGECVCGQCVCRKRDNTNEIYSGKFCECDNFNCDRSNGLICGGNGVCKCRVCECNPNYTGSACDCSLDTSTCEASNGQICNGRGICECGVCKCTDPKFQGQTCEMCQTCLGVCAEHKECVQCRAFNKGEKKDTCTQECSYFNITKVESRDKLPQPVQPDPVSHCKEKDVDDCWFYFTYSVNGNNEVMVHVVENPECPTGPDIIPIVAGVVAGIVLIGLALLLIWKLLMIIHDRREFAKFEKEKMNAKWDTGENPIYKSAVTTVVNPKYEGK
Nature of the assay: Cell adhesion assay, A549-αvβ1 (LAP-b1). Conditions: A549-αvβ1 cells, ligand LAP-b1, 2 mM MgCl2; for IC50: mean, read-out: αvβ1 pIC50 (mean affinity, cell Adhesion Assay) (converted). How it is done:
as §1

In a further assay the target is T3, αvβ3 (Homo sapiens, UniProt P05106+P06756).
T3 construct: expressed in transfected cells; host or cells: K562
T3 sequence (P06756 31-889 limits assumed): as the sequence (P06756 31-889 limits assumed) above
T3 sequence (P06756 891-1048 partner limits assumed): as the sequence (P06756 891-1048 partner limits assumed) above
T3 sequence (P05106 27-788): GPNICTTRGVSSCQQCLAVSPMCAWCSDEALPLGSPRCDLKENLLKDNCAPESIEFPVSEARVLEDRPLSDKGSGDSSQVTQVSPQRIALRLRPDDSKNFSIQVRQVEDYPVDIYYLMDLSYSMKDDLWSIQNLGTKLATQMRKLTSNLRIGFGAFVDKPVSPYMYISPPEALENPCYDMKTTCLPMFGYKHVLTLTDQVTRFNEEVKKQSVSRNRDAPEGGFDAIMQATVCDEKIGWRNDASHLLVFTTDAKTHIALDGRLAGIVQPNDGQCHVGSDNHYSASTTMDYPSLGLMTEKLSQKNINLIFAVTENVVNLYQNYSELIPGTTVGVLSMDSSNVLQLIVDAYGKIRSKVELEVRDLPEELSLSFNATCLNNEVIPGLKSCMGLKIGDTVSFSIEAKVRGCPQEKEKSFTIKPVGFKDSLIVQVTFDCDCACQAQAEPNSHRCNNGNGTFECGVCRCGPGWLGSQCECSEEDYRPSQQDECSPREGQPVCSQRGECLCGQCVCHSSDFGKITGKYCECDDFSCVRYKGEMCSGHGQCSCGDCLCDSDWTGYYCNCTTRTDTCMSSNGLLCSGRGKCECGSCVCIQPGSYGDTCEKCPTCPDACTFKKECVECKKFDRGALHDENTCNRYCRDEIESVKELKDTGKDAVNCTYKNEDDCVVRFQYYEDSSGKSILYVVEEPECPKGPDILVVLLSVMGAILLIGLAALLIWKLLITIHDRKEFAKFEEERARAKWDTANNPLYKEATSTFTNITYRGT
The experiment in a line: Cell adhesion assay, K562-αvβ3 (LAP-b1). Conditions: K562-αvβ3 cells, ligand LAP-b1, 2 mM MgCl2; for IC50: mean, read-out: αvβ3 pIC50 (mean affinity, cell Adhesion Assay) (converted). The procedure:
as §1

The target of the next assay is T4, αvβ5 (Homo sapiens, UniProt P06756+P18084).
T4 construct: expressed in transfected cells; host or cells: K562
The experiment in a line: Cell adhesion assay, K562-αvβ5 (Vitronectin). Conditions: K562-αvβ5 cells, ligand Vitronectin, 2 mM MgCl2; for IC50: mean, read-out: αvβ5 pIC50 (mean affinity, cell Adhesion Assay) (converted). How it is done:
as §1

A further assay has as its target T5, αvβ8 (Homo sapiens, UniProt P06756+P26012).
T5 construct: expressed in transfected cells; host or cells: K562
Nature of the assay: Cell adhesion assay, K562-αvβ8 (LAP-b1). Conditions: K562-αvβ8 cells, ligand LAP-b1, 2 mM MgCl2; for IC50: mean, read-out: αvβ8 pIC50 (mean affinity, cell Adhesion Assay) (converted). How it is done:
as §1

Where “and” joins values, the source holds several entries; their conditions need not be identical. Equal values may be shown once.

T1 sequence (P06756 31-889 limits assumed): as the sequence (P06756 31-889 limits assumed) above
T1 sequence (P06756 891-1048 partner limits assumed): as the sequence (P06756 891-1048 partner limits assumed) above
T1 sequence (P18564 22-788): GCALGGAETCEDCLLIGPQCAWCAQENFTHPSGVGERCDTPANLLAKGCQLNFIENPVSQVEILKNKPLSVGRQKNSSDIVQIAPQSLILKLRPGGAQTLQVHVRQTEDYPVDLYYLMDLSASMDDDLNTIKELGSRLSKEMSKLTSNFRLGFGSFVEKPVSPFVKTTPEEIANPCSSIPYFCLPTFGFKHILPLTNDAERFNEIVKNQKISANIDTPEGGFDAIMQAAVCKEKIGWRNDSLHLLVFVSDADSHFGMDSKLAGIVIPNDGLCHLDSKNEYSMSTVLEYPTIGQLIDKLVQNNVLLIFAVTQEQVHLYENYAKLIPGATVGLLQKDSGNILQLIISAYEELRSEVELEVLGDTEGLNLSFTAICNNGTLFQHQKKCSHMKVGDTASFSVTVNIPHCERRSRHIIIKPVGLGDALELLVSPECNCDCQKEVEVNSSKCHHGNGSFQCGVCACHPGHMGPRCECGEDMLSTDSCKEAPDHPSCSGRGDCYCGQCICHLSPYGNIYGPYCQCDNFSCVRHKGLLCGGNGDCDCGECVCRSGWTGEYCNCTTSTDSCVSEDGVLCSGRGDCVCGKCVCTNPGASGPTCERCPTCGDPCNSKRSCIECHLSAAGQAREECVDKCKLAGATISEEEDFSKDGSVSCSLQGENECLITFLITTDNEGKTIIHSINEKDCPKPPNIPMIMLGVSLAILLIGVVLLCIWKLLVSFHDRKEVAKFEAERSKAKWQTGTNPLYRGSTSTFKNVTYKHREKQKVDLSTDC
T5 sequence (P06756 31-889 limits assumed): as the sequence (P06756 31-889 limits assumed) above
T5 sequence (P06756 891-1048 partner limits assumed): as the sequence (P06756 891-1048 partner limits assumed) above
T5 sequence (P26012 43-769): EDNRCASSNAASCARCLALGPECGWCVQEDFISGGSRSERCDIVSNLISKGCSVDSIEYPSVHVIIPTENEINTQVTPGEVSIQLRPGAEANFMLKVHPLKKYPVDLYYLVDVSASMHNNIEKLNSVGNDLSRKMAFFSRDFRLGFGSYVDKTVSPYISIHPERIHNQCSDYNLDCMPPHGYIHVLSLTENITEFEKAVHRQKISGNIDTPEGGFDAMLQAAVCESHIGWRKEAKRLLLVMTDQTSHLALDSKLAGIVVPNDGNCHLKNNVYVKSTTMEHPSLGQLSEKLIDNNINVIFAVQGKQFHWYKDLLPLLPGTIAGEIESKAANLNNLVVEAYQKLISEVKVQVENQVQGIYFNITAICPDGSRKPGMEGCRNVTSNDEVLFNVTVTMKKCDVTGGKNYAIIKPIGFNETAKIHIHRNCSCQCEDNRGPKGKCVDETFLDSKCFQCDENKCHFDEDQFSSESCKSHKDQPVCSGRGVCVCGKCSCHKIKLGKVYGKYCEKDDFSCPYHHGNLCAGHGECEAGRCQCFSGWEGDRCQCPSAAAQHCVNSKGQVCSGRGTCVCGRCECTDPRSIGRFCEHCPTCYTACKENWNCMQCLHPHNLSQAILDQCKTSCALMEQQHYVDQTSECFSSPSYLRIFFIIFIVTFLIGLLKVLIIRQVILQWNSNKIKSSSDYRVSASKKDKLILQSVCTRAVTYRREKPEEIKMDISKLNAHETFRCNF

Turning to `O=C(O)C[C@H](CN1CC[C@@](F)(CCc2ccc3c(n2)NCCC3)C1)c1cccc(OC[C@H]2CCCO2)c1` [Example 1, (S)-4-((S)-3-Fluoro-3-(2-(5,6,7,8-tetrahydro-1,8-naphthyridin-2-yl)ethyl)pyrrolidin-1-yl)-3-(3-(((R)-tetrahydrofuran-2-yl)methoxy)phenyl)butanoic acid], the IC50 at αvβ6 was 25.1 nM; at αvβ1 it was 2000 nM; at αvβ3 it was 79.4 nM; on αvβ5, 251 nM; at αvβ8 it was 100 nM.
With `COCCOc1cc(OCCF)cc(C(CC(=O)O)CN2CC[C@@](F)(CCc3ccc4c(n3)NCCC4)C2)c1` (stereo partly drawn) [Example 13, 4-((S)-3-Fluoro-3-(2-(5,6,7,8-tetrahydro-1,8-naphthyridin-2-yl)ethyl)pyrrolidin-1-yl)-3-(3-(2-fluoroethoxy)-5-(2-methoxyethoxy)phenyl)butanoic acid], the IC50 at αvβ6 was 10 nM; at αvβ1, 126 nM; at αvβ3, 79.4 nM; at αvβ5, 100 nM; on αvβ8, 31.6 nM.
`O=C(O)CC(O)(CC(=O)O)C(=O)O.O=C(O)C[C@H](CN1CC[C@@](F)(CCc2ccc3c(n2)NCCC3)C1)c1cccc(O[C@H]2CCOC2)c1` [Example 18, (S)-4-((S)-3-Fluoro-3-(2-(5,6,7,8-tetrahydro-1,8-naphthyridin-2-yl)ethyl)pyrrolidin-1-yl)-3-(3-(((S)-tetrahydrofuran-3-yl)oxy)phenyl)butanoic acid (1:1) citrate salt]: the “αvβ6 pIC50 (mean affinity, cell Adhesion Assay)” value at αvβ6 stood at 8.3. Besides, the “αvβ1 pIC50 (mean affinity, cell Adhesion Assay)” value (shortened to “αvβ1 pIC50”) on αvβ1 is listed as 6.4. For the same compound, the “αvβ3 pIC50 (mean affinity, cell Adhesion Assay)” value (from here on “αvβ3 pIC50”) on αvβ3 was found to be 7.3. The “αvβ5 pIC50 (mean affinity, cell Adhesion Assay)” value (“αvβ5 pIC50” for short) at αvβ5 was determined as 7.5. Moreover, the “αvβ8 pIC50 (mean affinity, cell Adhesion Assay)” value at αvβ8 came out at 7.7.
With `O=C(O)C[C@H](CN1CC[C@@](F)(CCc2ccc3c(n2)NCCC3)C1)c1cccc(O[C@@H]2CCOC2)c1` [Example 3, (S)-4-((S)-3-Fluoro-3-(2-(5,6,7,8-tetrahydro-1,8-naphthyridin-2-yl)ethyl)pyrrolidin-1-yl)-3-(3-(((R)-tetrahydrofuran-3-yl)oxy)phenyl)butanoic acid], the IC50 at αvβ6 was 5.01 nM; on αvβ1, 200 nM; at αvβ3, 100 nM; at αvβ5, 39.8 nM; on αvβ8, 50.1 nM.
As to `O=C(O)C[C@H](CN1CC[C@@](F)(CCc2ccc3c(n2)NCCC3)C1)c1cccc(C2CCOC2)c1` (single isomer, unassigned; isomer 2) [Example 11], the IC50 at αvβ1 and at αvβ5 was 126 nM each time.
On to `O=C(O)CC(O)(CC(=O)O)C(=O)O.O=C(O)C[C@H](CN1CC[C@@](F)(CCc2ccc3c(n2)NCCC3)C1)c1cccc(O[C@@H]2CCOC2)c1` [Example 16, (S)-4-((S)-3-Fluoro-3-(2-(5,6,7,8-tetrahydro-1,8-naphthyridin-2-yl)ethyl)pyrrolidin-1-yl)-3-(3-(((R)-tetrahydrofuran-3-yl)oxy)phenyl)butanoic acid (1:1) citrate salt], for which, at αvβ1, the “αvβ1 pIC50” value was found to be 6.8. In addition, on αvβ3, the “αvβ3 pIC50” value came out at 7.6. Besides, on αvβ5, the “αvβ5 pIC50” value was found to be 7.4.
On to `O=C(O)C[C@H](CN1CC[C@@](F)(CCc2ccc3c(n2)NCCC3)C1)c1cccc(OC2COC2)c1` [Example 8, (S)-4-((S)-3-Fluoro-3-(2-(5,6,7,8-tetrahydro-1,8-naphthyridin-2-yl)ethyl)pyrrolidin-1-yl)-3-(3-(oxetan-3-yloxy)phenyl)butanoic acid], for which the IC50 is 12.6 nM at αvβ6; 398 nM on αvβ1; 100 nM on αvβ3; 63.1 nM on αvβ5; 31.6 nM on αvβ8.
As to `O=C(O)/C=C\C(=O)O.O=C(O)C[C@H](CN1CC[C@@](F)(CCc2ccc3c(n2)NCCC3)C1)c1cccc(O[C@H]2CCOC2)c1` [Example 19, (S)-4-((S)-3-Fluoro-3-(2-(5,6,7,8-tetrahydro-1,8-naphthyridin-2-yl)ethyl)pyrrolidin-1-yl)-3-(3-(((S)-tetrahydrofuran-3-yl)oxy)phenyl)butanoic acid (1:1) maleate salt], the “αvβ6 pIC50 (mean affinity, cell Adhesion Assay)” value on αvβ6 was found to be 8.2. The “αvβ1 pIC50” value on αvβ1 is recorded as 6.6. In addition, the “αvβ3 pIC50” value on αvβ3 was 7.3. The “αvβ5 pIC50” value at αvβ5 amounted to 7.5. The “αvβ8 pIC50 (mean affinity, cell Adhesion Assay)” value at αvβ8 is given as 7.4.
As for `O=C(O)C[C@H](CN1CC[C@@](F)(CCc2ccc3c(n2)NCCC3)C1)c1cccc(OC[C@@H]2CCCO2)c1` [Example 2, (S)-4-((S)-3-Fluoro-3-(2-(5,6,7,8-tetrahydro-1,8-naphthyridin-2-yl)ethyl)pyrrolidin-1-yl)-3-(3-(((S)-tetrahydrofuran-2-yl)methoxy)phenyl)butanoic acid], the IC50 on αvβ6 is 15.8 nM; on αvβ1, 1000 nM; at αvβ5 it was 100 nM; on αvβ8, 100 nM.
For the compound `O=C(O)C[C@H](CN1CC[C@@](F)(CCc2ccc3c(n2)NCCC3)C1)c1cccc(OCC2COC2)c1` [Example 12, (S)-4-((S)-3-Fluoro-3-(2-(5,6,7,8-tetrahydro-1,8-naphthyridin-2-yl)ethyl)pyrrolidin-1-yl)-3-(3-(oxetan-3-ylmethoxy)phenyl)butanoic acid], the IC50 is 15.8 nM on αvβ6; 251 nM on αvβ1; 63.1 nM at αvβ3; 31.6 nM on αvβ5; 25.1 nM on αvβ8.
On the same counts, the results for `COCCOc1ccc(F)c(C(CC(=O)O)CN2CC[C@@](F)(CCc3ccc4c(n3)NCCC4)C2)c1` (stereo partly drawn) [Example 14, 4-((S)-3-Fluoro-3-(2-(5,6,7,8-tetrahydro-1,8-naphthyridin-2-yl)ethyl)pyrrolidin-1-yl)-3-(2-fluoro-5-(2-methoxyethoxy)phenyl)butanoic acid] are 25.1 nM, 2000 nM, 501 nM, 25.1 nM and 158 nM.
On the same counts, the results for `O=C(O)C[C@H](CN1CC[C@@](F)(CCc2ccc3c(n2)NCCC3)C1)c1cccc(C2CCOC2)c1` (single isomer, unassigned; isomer 1) [Example 10] are 12.6 nM, 398 nM, 63.1 nM, 79.4 nM and 20 nM.
On the same counts, the results for `O=C(O)C[C@H](CN1CC[C@@](F)(CCc2ccc3c(n2)NCCC3)C1)c1cccc(O[C@H]2CCOC2)c1` [Example 4, (S)-4-((S)-3-Fluoro-3-(2-(5,6,7,8-tetrahydro-1,8-naphthyridin-2-yl)ethyl)pyrrolidin-1-yl)-3-(3-(((S)-tetrahydrofuran-3-yl)oxy)phenyl)butanoic acid] are 5.01 nM, 100 nM, 50.1 nM, 79.4 nM and 31.6 nM.
As for `CO[C@H](C)COc1cccc([C@H](CC(=O)O)CN2CC[C@@](F)(CCc3ccc4c(n3)NCCC4)C2)c1` [Example 5], the IC50 on αvβ6 is 12.6 nM; on αvβ1 it was 200 nM; at αvβ3 it was 31.6 nM; on αvβ5 it was 25.1 nM; on αvβ8, 31.6 nM.
With `O=C(O)C[C@H](CN1CC[C@@](F)(CCc2ccc3c(n2)NCCC3)C1)c1cccc(OC2CCOCC2)c1` [Example 15, (S)-4-((S)-3-Fluoro-3-(2-(5,6,7,8-tetrahydro-1,8-naphthyridin-2-yl)ethyl)pyrrolidin-1-yl)-3-(3-((tetrahydro-2H-pyran-4-yl)oxy)phenyl)butanoic acid], the IC50 was 10 nM and 12.6 nM on αvβ6; 316 nM at αvβ1; 20 nM at αvβ3; 39.8 nM on αvβ5.
As for `COCCOc1cc(OCCOC)cc([C@H](CC(=O)O)CN2CC[C@@](F)(CCc3ccc4c(n3)NCCC4)C2)c1` [Example 9, (S)-3-(3,5-Bis(2-methoxyethoxy)phenyl)-4-((S)-3-fluoro-3-(2-(5,6,7,8-tetrahydro-1,8-naphthyridin-2-yl)ethyl)pyrrolidin-1-yl)butanoic acid], the IC50 is 10 nM at αvβ6, 1000 nM at αvβ1 and 50.1 nM at αvβ8.

These data come from patent US20210206758A1, “NAPHTHYRIDINES AS INTEGRIN ANTAGONISTS” (GlaxoSmithKline Intellectual Property Development Limited, priority 2016, published 2021).
